Measured values published in ChEMBL document CHEMBL5137055, “Near-Infrared Fluorescent Probes as Imaging and Theranostic Modalities for Amyloid-Beta and Tau Aggregates in Alzheimer's Disease” (J Med Chem, 2022).

Molecular target: T1, Amyloid-beta precursor protein (Homo sapiens, UniProt P05067)
Experiment: Binding affinity to amyloid beta (1 to 40) (unknown origin) fibrils
Conditions: not given

T1 sequence (P05067 whole entry): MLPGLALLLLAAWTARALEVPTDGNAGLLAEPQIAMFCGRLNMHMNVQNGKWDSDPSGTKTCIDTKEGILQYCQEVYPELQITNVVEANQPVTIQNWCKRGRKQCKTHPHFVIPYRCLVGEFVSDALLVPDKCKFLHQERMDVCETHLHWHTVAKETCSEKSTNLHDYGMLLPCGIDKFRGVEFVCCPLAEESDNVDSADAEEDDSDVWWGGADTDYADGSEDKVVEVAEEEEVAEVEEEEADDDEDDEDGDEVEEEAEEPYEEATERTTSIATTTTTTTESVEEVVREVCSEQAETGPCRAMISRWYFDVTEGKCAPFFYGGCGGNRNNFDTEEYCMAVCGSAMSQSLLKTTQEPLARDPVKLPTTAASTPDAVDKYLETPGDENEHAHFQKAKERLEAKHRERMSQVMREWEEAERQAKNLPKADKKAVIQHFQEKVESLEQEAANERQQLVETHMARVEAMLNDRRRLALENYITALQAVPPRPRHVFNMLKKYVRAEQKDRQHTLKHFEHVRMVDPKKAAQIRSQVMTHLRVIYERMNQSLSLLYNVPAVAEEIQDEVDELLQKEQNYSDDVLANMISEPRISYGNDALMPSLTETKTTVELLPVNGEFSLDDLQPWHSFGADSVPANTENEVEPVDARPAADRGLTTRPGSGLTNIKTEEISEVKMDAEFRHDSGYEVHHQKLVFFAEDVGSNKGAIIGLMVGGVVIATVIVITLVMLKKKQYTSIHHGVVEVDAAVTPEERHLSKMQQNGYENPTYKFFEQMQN

Kd [µM] | Ki [µM] | Compound
4.29 |  | CCO[n+]1ccc(/C=C/c2ccc(N(C)C)cc2)c2ccccc21
194 |  | COCCOCCn1c2ccccc2c2cc(/C=C/c3cc[n+](C)cc3)ccc21
 | 0.143 | Cc1ccc2nc(-c3ccc(N(C)C)cc3)sc2c1
39.3 |  | CCCCN(CCCC)c1ccc2cc(/C=C/c3cc[n+](C)c4ccccc34)ccc2c1
0.93 |  | CCCC[N+]1=C(/C=C/c2ccc(N(CC)CC)cc2)C(C)(C)c2ccccc21
8.31 |  | C[N+]1=C(/C=C/c2ccc(N3CCCC3)cc2)C(C)(C)c2ccccc21
33.3 |  | CCCCN(CCCC)c1ccc2cc(/C=C/c3cc[n+](CCO)c4ccccc34)ccc2c1
1.9 |  | COCCOCCn1c2ccc(F)cc2c2cc(/C=C/c3cc[n+](CCO)c4ccccc34)ccc21
1110 |  | CCCCN(CCCC)c1ccc2cc(/C=C/c3c[n+](C)cc4ccccc34)ccc2c1
14.6 |  | C[n+]1ccc(/C=C/c2ccc(N(c3ccccc3)c3ccccc3)cc2)c2ccccc21
459 |  | COCCOCCn1c2ccccc2c2cc(/C=C/c3cc[n+](CCO)cc3)ccc21
92 |  | COCCOCCn1c2ccccc2c2cc(/C=C/c3cc[n+](CCO)c4ccccc34)ccc21
13.1 |  | COCCOCCn1c2ccccc2c2cc(/C=C/c3cc[n+](C)c4ccccc34)ccc21
1.22 |  | CC[n+]1c(/C=C/C=C/c2ccc(N(C)C)cc2)sc2ccccc21
1.13 |  | CCCN(CCC)c1ccc(/C=C/c2cc[n+](OCC)c3ccccc23)cc1

Molecular target: not listed separately
Experiment: Binding affinity to tau protein (unknown origin)
Set-up: species or system Homo sapiens
Conditions: not given

Kd [µM] | IC50 [µM] | Compound
1.02 |  | COc1cc(N(C)C)cc(OC)c1/C=C/C=C/C=C/C(C#N)C(=O)OCc1ccco1 (centres undefined)
 | 0.77 | COc1cc(N(C)C)cc(OC)c1/C=C/C(=O)/C=C(O)/C=C/c1c(OC)cc(N(C)C)cc1OC
 | 0.00141 | CCCC[N+]1=C(/C=C/c2ccc(N(CC)CC)cc2)C(C)(C)c2ccccc21
0.00119 |  | Cc1cc(/C=C/c2ccc3cc(N(C)C)ccc3c2)n2c1C=C1C=CC=[N+]1[B-]2(F)F
0.00286 |  | Cc1cc(/C=C/C=C/c2ccc(N(C)C)cc2)n2c1C=C1C=CC=[N+]1[B-]2(F)F
 | 0.0051 | C[N+]1=C(/C=C/c2ccc(N3CCCC3)cc2)C(C)(C)c2ccccc21
50 |  | CC(C)CC1=CC(/C=C/C=C/c2ccc(N(C)C)cc2)=[O+][B-](F)(F)O1
0.0431 |  | CN(C)c1ccc2nc(/C=C/C=C/C=C(C#N)C#N)cnc2c1
0.054 |  | CN(C)c1ccc(/C=C/c2cc(/C=C/c3ccc(N(C)C)cc3)ncn2)cc1
0.0441 |  | Cc1cc(/C=C/c2ccc(N(C)C)cc2)n2c1C=C1C=CC=[N+]1[B-]2(F)F
1.9 |  | Cc1ccc2c(sc(-c3ccc4c(c3)sc(-c3ccc(N(C)C)cc3)[n+]4C)[n+]2C)c1S(=O)(=O)O
0.052 |  | C(=C\c1cc(/C=C/c2ccc(N3CCCC3)cc2)ncn1)/c1ccc(N2CCCC2)cc1
0.127 |  | CN(C)c1ccc(/C=C/c2cnc3ccccc3n2)s1
0.126 |  | CC[n+]1c(/C=C/C=C/c2ccc(N(C)C)cc2)sc2ccccc21

Molecular target: T1, Amyloid-beta precursor protein
Experiment: Binding affinity to amyloid beta (1 to 42) (unknown origin) fibrils
Conditions: not given

Kd [µM] | Compound
7.78 | CCO[n+]1ccc(/C=C/c2ccc(N(C)C)cc2)c2ccccc21
246 | CCCCN(CCCC)c1ccc2cc(/C=C/c3cc[n+](C)c4ccccc34)ccc2c1
848 | CCCCN(CCCC)c1ccc2cc(/C=C/c3cc[n+](CCO)c4ccccc34)ccc2c1
97.9 | CCCCN(CCCC)c1ccc2cc(/C=C/c3c[n+](C)cc4ccccc34)ccc2c1
17.4 | C[n+]1ccc(/C=C/c2ccc(N(c3ccccc3)c3ccccc3)cc2)c2ccccc21
0.11 | CN(C)c1ccc2nc(/C=C/c3ccc(C=C(C#N)C#N)cc3)sc2c1
11.4 | COCCOCCn1c2ccccc2c2cc(/C=C/c3cc[n+](C)c4ccccc34)ccc21
3.19 | CCCN(CCC)c1ccc(/C=C/c2cc[n+](OCC)c3ccccc23)cc1

Compound | Kd [µM]
CN(C)c1ccc2nc(C=C(C#N)C#N)sc2c1 | 0.12

Molecular target: T1, Amyloid-beta precursor protein
Experiment: Binding affinity to amyloid beta (1 to 40) (unknown origin) aggregates
Conditions: not given

Ki [µM] | Compound
0.00137 | CCCC[N+]1=C(/C=C/c2ccc(N(CC)CC)cc2)C(C)(C)c2ccccc21

Molecular target: T1, Amyloid-beta precursor protein
Experiment: Binding affinity to amyloid beta (1 to 40) (unknown origin) monomer
Conditions: not given

Kd [µM] | Compound
13 | CCO[n+]1ccc(/C=C/c2ccc(N(C)C)cc2)c2ccccc21
71.1 | CCCCN(CCCC)c1ccc2cc(/C=C/c3cc[n+](C)c4ccccc34)ccc2c1
0.106 | CCN(CC)c1ccc(/C=C/C2=CC(/C=C/c3ccc(N(C)C)cc3)=[O+][B-](F)(F)O2)cn1
246 | CCCCN(CCCC)c1ccc2cc(/C=C/c3cc[n+](CCO)c4ccccc34)ccc2c1
3.22 | COCCOCCn1c2ccc(F)cc2c2cc(/C=C/c3cc[n+](CCO)c4ccccc34)ccc21
81 | CCCCN(CCCC)c1ccc2cc(/C=C/c3c[n+](C)cc4ccccc34)ccc2c1
25.9 | C[n+]1ccc(/C=C/c2ccc(N(c3ccccc3)c3ccccc3)cc2)c2ccccc21
96.6 | COCCOCCn1c2ccccc2c2cc(/C=C/c3cc[n+](C)c4ccccc34)ccc21
6.18 | CCCN(CCC)c1ccc(/C=C/c2cc[n+](OCC)c3ccccc23)cc1

Molecular target: T1, Amyloid-beta precursor protein
Experiment: Binding affinity to amyloid beta (1 to 42) (unknown origin) monomer
Conditions: not given

Kd [µM] | Compound
17.6 | CCO[n+]1ccc(/C=C/c2ccc(N(C)C)cc2)c2ccccc21
281 | CCCCN(CCCC)c1ccc2cc(/C=C/c3cc[n+](C)c4ccccc34)ccc2c1
0.0458 | CCN(CC)c1ccc(/C=C/C2=CC(/C=C/c3ccc(N(C)C)cc3)=[O+][B-](F)(F)O2)cn1
1090 | CCCCN(CCCC)c1ccc2cc(/C=C/c3cc[n+](CCO)c4ccccc34)ccc2c1
25.3 | CCCCN(CCCC)c1ccc2cc(/C=C/c3c[n+](C)cc4ccccc34)ccc2c1
31.7 | C[n+]1ccc(/C=C/c2ccc(N(c3ccccc3)c3ccccc3)cc2)c2ccccc21
40.2 | COCCOCCn1c2ccccc2c2cc(/C=C/c3cc[n+](C)c4ccccc34)ccc21
13.1 | CCCN(CCC)c1ccc(/C=C/c2cc[n+](OCC)c3ccccc23)cc1

Molecular target: T1, Amyloid-beta precursor protein
Experiment: Binding affinity to human amyloid beta (1 to 42) monomer measured by fluorescence assay
Conditions: not given

Kd [µM] | Compound
0.0032 | CN(C)c1ccc(/C=C/C2=CC(/C=C/c3ccc(N(C)C)cc3)=[O+][B-]3(OC(=O)C(=O)O3)O2)cc1
0.024 | CCN(CC)c1ccc(/C=C/C2=CC(/C=C/c3ccc(N(CC)CC)nc3)=[O+][B-](F)(F)O2)cn1

Molecular target: T1, Amyloid-beta precursor protein
Experiment: Binding affinity to human amyloid beta (1 to 42) oligomer measured by fluorescence assay
Conditions: not given

Kd [µM] | Compound
0.0038 | CN(C)c1ccc(/C=C/C2=CC(/C=C/c3ccc(N(C)C)cc3)=[O+][B-]3(OC(=O)C(=O)O3)O2)cc1
0.0688 | Cc1c(/C=C/C2=CC(/C=C/c3cnn(-c4ccccc4)c3C)=[O+][B-](F)(F)O2)cnn1-c1ccccc1
0.016 | CCN(CC)c1ccc(/C=C/C2=CC(/C=C/c3ccc(N(CC)CC)nc3)=[O+][B-](F)(F)O2)cn1

Molecular target: T1, Amyloid-beta precursor protein
Experiment: Binding affinity to human amyloid beta (1 to 42) aggregates measured by fluorescence assay
Conditions: not given

Kd [µM] | Compound
0.027 | CCN(CC)c1ccc(/C=C/C2=CC(/C=C/c3ccc(N(CC)CC)nc3)=[O+][B-](F)(F)O2)cn1

Molecular target: T1, Amyloid-beta precursor protein
Experiment: Binding affinity to human amyloid beta (1 to 40) monomer measured by fluorescence assay
Conditions: not given

Kd [µM] | Compound
0.0857 | Cc1c(/C=C/C2=CC(/C=C/c3cnn(-c4ccccc4)c3C)=[O+][B-](F)(F)O2)cnn1-c1ccccc1

Molecular target: T1, Amyloid-beta precursor protein
Experiment: Binding affinity to human amyloid beta (1 to 40) aggregates measured by fluorescence assay
Conditions: not given

Kd [µM] | Compound
0.0381 | CN(C)c1ccc(/C=C/C2=CC(/C=C/c3ccc(N(C)C)cc3)=[O+][B-]3(OC(=O)C(=O)O3)O2)cc1
0.0524 | Cc1c(/C=C/C2=CC(/C=C/c3cnn(-c4ccccc4)c3C)=[O+][B-](F)(F)O2)cnn1-c1ccccc1

Molecular target: not listed separately
Experiment: Binding affinity to amyloid beta (unknown origin)
Set-up: species or system Homo sapiens
Conditions: not given

Kd [µM] | Ki [µM] | IC50 [µM] | Compound
1.5 |  |  | COc1cc(N(C)C)cc(OC)c1/C=C/C=C/C=C/C(C#N)C(=O)OCc1ccco1 (centres undefined)
 | 0.0926 |  | CN(C)c1ccc(/C=C/C=C/C=C/C=C(C#N)C#N)cn1
 | 0.0141 |  | CN(C)c1ccc(/C=C/C=C/C=C/C=C(C#N)C#N)cc1
0.0546 | 0.01 |  | N#CC(C#N)=Cc1ccc(-c2ccc(-c3ccc(O)cc3)s2)s1
1.41 |  |  | CC(C)CC1=CC(/C=C/C=C/c2ccc(N(C)C)cc2)=[O+][B-](F)(F)O1
0.0332 |  |  | CN(C)c1ccc2nc(/C=C/C=C/C=C(C#N)C#N)cnc2c1
 |  | 0.004 | CN(C)c1ccc(/C=C/c2cc(/C=C/c3ccc(N(C)C)cc3)ncn2)cc1
 |  | 0.002 | C(=C\c1cc(/C=C/c2ccc(N3CCCC3)cc2)ncn1)/c1ccc(N2CCCC2)cc1
0.0252 |  |  | CN(C)c1ccc(/C=C/c2cnc3ccccc3n2)s1

Compound | Kd [µM] | Ki [µM] | IC50 [µM]
CN(C)c1ncc(/C=C/c2nc3cc(OCC[18F])ccc3[se]2)cn1 | 0.0017 |  | 

Molecular target: not listed separately
Experiment: Binding affinity to amyloid beta (unknown origin) aggregates
Set-up: species or system Homo sapiens
Conditions: not given

Kd [µM] | Compound
0.161 | Cc1cc(/C=C/c2ccc3cc(N(C)C)ccc3c2)n2c1C=C1C=CC=[N+]1[B-]2(F)F
0.325 | Cc1cc(/C=C/C=C/c2ccc(N(C)C)cc2)n2c1C=C1C=CC=[N+]1[B-]2(F)F

Molecular target: not listed separately
Experiment: Binding affinity to amyloid beta (unknown origin) monomer
Set-up: species or system Homo sapiens
Conditions: not given

Kd [µM] | Compound
0.189 | Cc1cc(/C=C/c2ccc(N(C)C)cc2)n2c1C=C1C=CC=[N+]1[B-]2(F)F

Test system: not listed separately
Experiment: Lipophilicity, logP of compound
Type: physicochemical
Conditions: octanol/water

Compound | logP
CN(C)c1ncc(/C=C/c2nc3cc(OCC[18F])ccc3[se]2)cn1 | 1.28
CCN(CC)c1ccc(/C=C/C2=CC(/C=C/c3ccc(N(C)C)cc3)=[O+][B-](F)(F)O2)cn1 | 1.94

Test system: not listed separately
Experiment: Drug uptake in brain of Tg mouse
Type: ADME, tissue-based
Conditions: in vivo

Drug uptake [%] | Compound
7.76 | CN(C)c1ccc2nc(/C=C/C=C/C=C(C#N)C#N)cnc2c1

Molecular target: T1, Amyloid-beta precursor protein
Experiment: Binding affinity to amyloid beta (1 to 40) (unknown origin) oligomer
Conditions: not given

Kd [µM] | Compound
20.1 | CCCCN(CCCC)c1ccc2cc(/C=C/c3cc[n+](C)c4ccccc34)ccc2c1
41.7 | CCCCN(CCCC)c1ccc2cc(/C=C/c3cc[n+](CCO)c4ccccc34)ccc2c1
0.66 | COCCOCCn1c2ccc(F)cc2c2cc(/C=C/c3cc[n+](CCO)c4ccccc34)ccc21
36.4 | CCCCN(CCCC)c1ccc2cc(/C=C/c3c[n+](C)cc4ccccc34)ccc2c1

Molecular target: T1, Amyloid-beta precursor protein
Experiment: Binding affinity to amyloid beta (1 to 42) (unknown origin) oligomer
Conditions: not given

Kd [µM] | Compound
128 | CCCCN(CCCC)c1ccc2cc(/C=C/c3cc[n+](C)c4ccccc34)ccc2c1
490 | CCCCN(CCCC)c1ccc2cc(/C=C/c3cc[n+](CCO)c4ccccc34)ccc2c1
20.8 | CCCCN(CCCC)c1ccc2cc(/C=C/c3c[n+](C)cc4ccccc34)ccc2c1
